Measurements taken from the C3SDB collision cross section collection.

Conditions: instrument: DT, stepped-field

Row | Structure (SMILES) | collision cross section (N2) ([M+H]+) [Å²] | collision cross section (N2) ([M+Na]+) [Å²] | collision cross section (N2) ([M+2Na-H]+) [Å²] | other results
1 | CCCCCCCCCCCCC=CC[C@@H](O)[C@H](CO[C@@H]1O[C@H](CO)[C@@H](O)C(O)C1O)NC(=O)CC=CCCCCCCCCCCCCCCCCCC (some centres not stated) [GlcCer(40:02)] | 293.98 | 292.09 |  | collision cross section (N2) ([M+H-H2O]+): 290.36 Å²
2 | CCCCCCCCCCCCC=CC[C@@H](O)[C@H](CO[C@@H]1O[C@H](CO)[C@@H](O)C(O)C1O)NC(=O)CC=CCCCCCCCCCCCCCCCCCCCCCC (some centres not stated) [GlcCer(44:02)] | 305.11 | 306.31 |  | collision cross section (N2) ([M+H-H2O]+): 301.46 Å²
3 | CCCCCCCCCCCCC=CC[C@@H](O)[C@H](COP(=O)([O-])OCC[N+](C)(C)C)NC(=O)CCCCCCCCCCCCCCCCCCCCCCC [SM(42:01)] | 303.17 | 302.6 |  | collision cross section (N2) ([M+Cl]-): 305.77 Å²; collision cross section (N2) ([M+HCOO]-): 306.96 Å²
4 | CCCCCCCCCCCCC=CC[C@@H](O)[C@H](CO[C@@H]1O[C@H](CO)[C@@H](O)C(O)C1O)NC(=O)CCCCCCCCCCCCCCCCCCCCCC (some centres not stated) [GlcCer(41:01)] | 297.12 | 297.42 |  | collision cross section (N2) ([M+H-H2O]+): 294.63 Å²
5 | CCCCCCCCCCCCC=CC[C@@H](O)[C@H](COP(=O)([O-])OCC[N+](C)(C)C)NC(=O)CCCCCCCCCCCCCCCCCC [SM(37:01)] | 288.67 | 285.35 |  | 
6 | CCCCCCCCCCCCCCCCCCCCCCCCCCCCCCC(=O)N[C@@H](CO[C@@H]1O[C@H](CO)[C@@H](O)C(O)C1O)[C@H](O)CCCCCCCCCCCCCCC (some centres not stated) [GlcCer(49:00)] |  |  |  | collision cross section (N2) ([M+Na-2H2O]+): 318.7 Å²
7 | CCCCCCCCCCCCC=CC[C@@H](O)[C@H](CO[C@@H]1O[C@H](CO)[C@@H](O)C(O)C1O)NC(=O)CCCCCCCCCCCCCCCCCCC (some centres not stated) [GlcCer(38:01)] | 288.15 | 290.52 |  | collision cross section (N2) ([M+H-H2O]+): 286.62 Å²
8 | CCCCCCCCCCCCCCCCCCCCC(=O)OC[C@H](COP(=O)(O)OCCN)OC(=O)CCCCCCCCCCCCCC [PE(36:00)] |  |  |  | collision cross section (N2) ([M-H]-): 274.96 Å²
9 | CCCCCCCCCCCCC=CC[C@@H](O)[C@H](COP(=O)([O-])OCC[N+](C)(C)C)NC(=O)CCCCCCCCCCCCCCCCCCC [SM(38:01)] | 292.26 | 292.18 |  | collision cross section (N2) ([M+Cl]-): 294.7 Å²; collision cross section (N2) ([M+HCOO]-): 296.3 Å²

Continued, in another order:

Row | collision cross section (N2) ([M+H]+) [Å²] | collision cross section (N2) ([M+Na]+) [Å²] | collision cross section (N2) ([M+2Na-H]+) [Å²] | Structure (SMILES) | other results
10 |  |  | 280.81 | CCCCCCCCCC/C=C\CCCCCCCCCC(=O)O[C@H](COC(=O)CCCCCCCCCCC)COP(=O)(O)OC[C@H](N)C(=O)O [PS(34:01)] | 
11 |  | 276.54 | 276.1 | CCCCC/C=C\C/C=C\CCCCCCCCCC(=O)O[C@H](COC(=O)CCCCCCC/C=C\C/C=C\CCCCC)COP(=O)(O)O [PA(38:04)] | 
12 | 270.06 | 276.03 | 275.64 | CCCCCC/C=C\CCCCCCCCCC(=O)O[C@H](COC(=O)CCCCCCCCCCCCCCC)COP(=O)(O)OCCN [PE(34:01)] | collision cross section (N2) ([M+K]+): 277.57 Å²; collision cross section (N2) ([M-H]-): 266.91 Å²
13 |  |  | 295.25 | CCCCC/C=C\C/C=C\C/C=C\C/C=C\CCCCCC(=O)O[C@H](COC(=O)CCC/C=C\C/C=C\C/C=C\C/C=C\CCCCC)COP(=O)(O)OC[C@H](N)C(=O)O [PS(42:08)] | collision cross section (N2) ([M-H]-): 291.98 Å²
14 |  | 268.62 | 268.9 | CCCCCCCC/C=C\CCCCCCCCCC(=O)O[C@H](COC(=O)CCCCCCCCCCC)COP(=O)(O)OCCN [PE(32:01)] | 
15 |  |  | 284.68 | CCCCC/C=C\C/C=C\C/C=C\C/C=C\CCCC(=O)O[C@H](COCCCCCCCCCCCCCCCCCC)COP(=O)(O)OCCN [PE(o38:04)] | 
